Numbered stars: 1 amine (or outer) side, 2 acyl side, 3 side chain; on linkers, the order of the positions; unused ones are H or OH. Square brackets hold non-standard residues; d marks the D form. Side chains are listed from the residue outwards. Peptide text beside a SMILES is read from it. * marks the point of attachment. C18 diacid = O=C(O)CCCCCCCCCCCCCCCCC(=O)*; γGlu = O=C(O)[C@H](CCC(=O)[*:2])N[*:1]; Ac4c = NC1(C(=O)O)CCC1; AEEA = NCCOCCOCC(=O)O; Aib = CC(C)(N)C(=O)O
Target: T1, human GLP-1 receptor (Homo sapiens, UniProt P43220)
T1 construct: expressed in transfected cells; host or cells: BHK cells (parent BHKTS13), clone FCW467-12A/KZ10-1, with CRE luciferase
Experiment: GLP-1 receptor binding, 125I-GLP-1 displacement SPA on isolated membranes
Details: displacement of 125I-GLP-1 from membranes; read-out: IC50 GLP-1R
In short: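 SPA displacement of 125I-GLP-1(7-36)NH2 from membranes of BHK cells expressing human GLP-1 receptor, with WGA beads, in 50 mM HEPES, 5 mM EGTA, 5 mM MgCl2, 0.005% Tween 20, pH 7.4. Incubated 2 h at 30°C; IC50 by non-linear regression, run at ≤0.001% or 2.0% final serum albumin.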

T1 sequence (P43220 24-463): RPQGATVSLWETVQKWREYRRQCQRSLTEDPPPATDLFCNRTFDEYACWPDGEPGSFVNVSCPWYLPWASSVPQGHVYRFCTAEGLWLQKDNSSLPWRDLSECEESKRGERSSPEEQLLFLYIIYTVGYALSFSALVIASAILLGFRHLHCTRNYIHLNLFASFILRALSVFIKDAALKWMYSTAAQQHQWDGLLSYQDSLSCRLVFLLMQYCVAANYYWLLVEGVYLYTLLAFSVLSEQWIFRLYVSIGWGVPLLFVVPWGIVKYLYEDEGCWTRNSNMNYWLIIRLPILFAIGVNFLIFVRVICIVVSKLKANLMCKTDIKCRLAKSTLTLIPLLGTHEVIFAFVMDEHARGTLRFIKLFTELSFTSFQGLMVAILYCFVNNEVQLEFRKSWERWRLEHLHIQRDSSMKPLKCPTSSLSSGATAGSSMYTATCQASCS

SMILES	IC50 [nM]
CC(C)C[C@H](NC(=O)[C@H](CC(C)C)NC(=O)[C@H](Cc1c[nH]c2ccccc12)NC(=O)[C@H](CCC(N)=O)NC(=O)[C@@H](NC(=O)[C@H](Cc1ccccc1)NC(=O)[C@H](CCC(=O)O)NC(=O)[C@H](CCC(N)=O)NC(=O)[C@H](C)NC(=O)[C@H](C)NC(=O)[C@H](CCCCN)NC(=O)[C@H](CO)NC(=O)[C@H](CC(=O)O)NC(=O)[C@H](CC(C)C)NC(=O)[C@H](Cc1ccc(O)cc1)NC(=O)[C@H](CCCCN)NC(=O)[C@H](CO)NC(=O)[C@H](CC(C)C)NC(=O)[C@H](CC(=O)O)NC(=O)[C@H](CO)NC(=O)[C@@H](NC(=O)[C@H](Cc1ccccc1)NC(=O)[C@@H](NC(=O)CNC(=O)[C@H](CCC(N)=O)NC(=O)C(C)(C)NC(=O)[C@@H](N)Cc1c[nH]cn1)[C@@H](C)O)[C@@H](C)O)C(C)C)C(=O)N[C@@H](CC(N)=O)C(=O)N[C@@H](CCCCNC(=O)CC[C@H](NC(=O)CC[C@H](NC(=O)COCCOCCNC(=O)COCCOCCNC(=O)CC[C@H](NC(=O)CCCCCCCCCCCCCCCCC(=O)O)C(=O)O)C(=O)O)C(=O)O)C(N)=O [Example 8, N^ε29-[(4S)-4-carboxy-4-[[(4S)-4-carboxy-4-[[2-[2-[2-[[2-[2-[2-[[(4S)-4-carboxy-4-(17-carboxyheptadecanoylamino)butanoyl]amino]ethoxy]ethoxy]acetyl]amino]ethoxy]ethoxy]acetyl]amino]butanoyl]amino]butanoyl]-[Aib2,Leu10,Lys17,Ala18,Glu21,Leu27,Lys29]-Glucagon amide] (H-H[Aib]QGTFTSDLSKYLDSKAAQEFVQWLLNK([γGlu-γGlu-AEEA-AEEA-γGlu-C18 diacid])-NH2; N-terminus assumed)	1.1
CC(C)C[C@H](NC(=O)[C@H](Cc1ccc(O)cc1)NC(=O)[C@H](CCCNC(=N)N)NC(=O)[C@H](CO)NC(=O)[C@H](CC(C)C)NC(=O)[C@H](CC(=O)O)NC(=O)[C@H](CO)NC(=O)[C@@H](NC(=O)[C@H](Cc1ccccc1)NC(=O)[C@@H](NC(=O)CNC(=O)[C@H](CCC(N)=O)NC(=O)C(C)(C)NC(=O)[C@@H](N)Cc1c[nH]cn1)[C@@H](C)O)[C@@H](C)O)C(=O)N[C@@H](CC(=O)O)C(=O)N[C@@H](C)C(=O)N[C@@H](CCCNC(=N)N)C(=O)N[C@@H](CCCNC(=N)N)C(=O)N[C@@H](C)C(=O)N[C@@H](CCCNC(=N)N)C(=O)N[C@@H](CC(=O)O)C(=O)N[C@@H](Cc1ccccc1)C(=O)N[C@H](C(=O)N[C@@H](CCC(N)=O)C(=O)N[C@@H](Cc1c[nH]c2ccccc12)C(=O)N[C@@H](CC(C)C)C(=O)N[C@@H](CC(C)C)C(=O)N[C@@H](CCCCNC(=O)CC[C@H](NC(=O)CC[C@H](NC(=O)CC[C@H](NC(=O)CCCCCCCCCCCCCCCCC(=O)O)C(=O)O)C(=O)O)C(=O)O)C(=O)N[C@H](C(N)=O)[C@@H](C)O)C(C)C [Example 62, N^ε28-[(4S)-4-carboxy-4-[[(4S)-4-carboxy-4-[[(4S)-4-carboxy-4-(17-carboxyheptadecanoylamino)butanoyl]amino]butanoyl]amino]butanoyl]-[Aib2,Leu10,Arg12,Ala16,Arg20,Leu27,Lys28]-Glucagon amide] (H-H[Aib]QGTFTSDLSRYLDARRARDFVQWLLK([γGlu-γGlu-γGlu-C18 diacid])T-NH2; N-terminus assumed)	0.2

More lines, now with the values ahead:

IC50 [nM]	SMILES
0.2	CC(C)C[C@H](NC(=O)[C@H](Cc1ccc(O)cc1)NC(=O)[C@H](CCCNC(=N)N)NC(=O)[C@H](CO)NC(=O)[C@H](CC(C)C)NC(=O)[C@H](CC(=O)O)NC(=O)[C@H](CO)NC(=O)[C@@H](NC(=O)[C@H](Cc1ccccc1)NC(=O)[C@@H](NC(=O)CNC(=O)[C@H](CCC(N)=O)NC(=O)C1(NC(=O)[C@@H](N)Cc2c[nH]cn2)CCC1)[C@@H](C)O)[C@@H](C)O)C(=O)N[C@@H](CCC(=O)O)C(=O)N[C@@H](CO)C(=O)N[C@@H](CCCNC(=N)N)C(=O)N[C@@H](CCCNC(=N)N)C(=O)N[C@@H](C)C(=O)N[C@@H](CCCNC(=N)N)C(=O)N[C@@H](CCC(=O)O)C(=O)N[C@@H](Cc1ccccc1)C(=O)N[C@H](C(=O)N[C@@H](CCC(N)=O)C(=O)N[C@@H](Cc1c[nH]c2ccccc12)C(=O)N[C@@H](CC(C)C)C(=O)N[C@@H](CC(C)C)C(=O)N[C@@H](CCCCNC(=O)CC[C@H](NC(=O)CC[C@H](NC(=O)COCCOCCNC(=O)COCCOCCNC(=O)CC[C@H](NC(=O)CC[C@H](NC(=O)CCCCCCCCCCCCCCCCC(=O)O)C(=O)O)C(=O)O)C(=O)O)C(=O)O)C(=O)N[C@H](C(N)=O)[C@@H](C)O)C(C)C [Example 59, N^ε28-[(4S)-4-carboxy-4-[[(4S)-4-carboxy-4-[[2-[2-[2-[[2-[2-[2-[[(4S)-4-carboxy-4-[[(4S)-4-carboxy-4-(17-carboxyheptadecanoylamino)butanoyl]amino]butanoyl]amino]ethoxy]ethoxy]acetyl]amino]ethoxy]ethoxy]acetyl]amino]butanoyl]amino]butanoyl]-[Acb2,Leu10,Arg12,Glu15,Arg20,Glu21,Leu27,Lys28]-Glucagon amide] (H-H[Ac4c]QGTFTSDLSRYLESRRAREFVQWLLK([γGlu-γGlu-AEEA-AEEA-γGlu-γGlu-C18 diacid])T-NH2; N-terminus assumed)
0.3	CC(C)C[C@H](NC(=O)[C@H](Cc1ccc(O)cc1)NC(=O)[C@H](CCCCN)NC(=O)[C@H](CO)NC(=O)[C@H](CC(C)C)NC(=O)[C@H](CC(=O)O)NC(=O)[C@H](CO)NC(=O)[C@@H](NC(=O)[C@H](Cc1ccccc1)NC(=O)[C@@H](NC(=O)CNC(=O)[C@H](CCC(N)=O)NC(=O)C1(NC(=O)[C@@H](N)Cc2c[nH]cn2)CCC1)[C@@H](C)O)[C@@H](C)O)C(=O)N[C@@H](CCC(=O)O)C(=O)N[C@@H](CO)C(=O)N[C@@H](CCCNC(=N)N)C(=O)N[C@@H](CCCNC(=N)N)C(=O)N[C@@H](C)C(=O)N[C@@H](CCCNC(=N)N)C(=O)N[C@@H](CCC(=O)O)C(=O)N[C@@H](Cc1ccccc1)C(=O)N[C@H](C(=O)N[C@@H](CCC(N)=O)C(=O)N[C@@H](Cc1c[nH]c2ccccc12)C(=O)N[C@@H](CC(C)C)C(=O)N[C@@H](CC(C)C)C(=O)N[C@@H](CCCCNC(=O)CC[C@H](NC(=O)CC[C@H](NC(=O)COCCOCCNC(=O)COCCOCCNC(=O)CC[C@H](NC(=O)CC[C@H](NC(=O)CCCCCCCCCCCCCCCCC(=O)O)C(=O)O)C(=O)O)C(=O)O)C(=O)O)C(=O)N[C@H](C(N)=O)[C@@H](C)O)C(C)C [Example 61, N^ε28-[(4S)-4-carboxy-4-[[(4S)-4-carboxy-4-[[2-[2-[2-[[2-[2-[2-[[(4S)-4-carboxy-4-[[(4S)-4-carboxy-4-(17-carboxyheptadecanoylamino)butanoyl]amino]butanoyl]amino]ethoxy]ethoxy]acetyl]amino]ethoxy]ethoxy]acetyl]amino]butanoyl]amino]butanoyl]-[Acb2,Leu10,Glu15,Arg20,Glu21,Leu27,Lys28]-Glucagon amide] (H-H[Ac4c]QGTFTSDLSKYLESRRAREFVQWLLK([γGlu-γGlu-AEEA-AEEA-γGlu-γGlu-C18 diacid])T-NH2; N-terminus assumed)

Tested on: not listed separately
Experiment: Chemical stability assessment by RP-UPLC
Assay type: physicochemical
Details: 333 μM, 8 mM phosphate buffer pH 7.3, 37° C. vs 5° C.
Protocol: The purpose of this assay was to assess the chemical stability of the glucagon derivatives of the invention in aqueous solutions.
Chemical stability of glucagon derivatives or analogues was investigated by RP-UPLC separation and UV detection. Lyophilized samples were dissolved in a 8 mM Phosphate buffer pH 8.6, followed by adjustment to pH 7.3.using HCl to a final concentration of 333 μM. Samples were incubated for 14 days at 5° C. and 37° C. followed by RP-UPLC analysis. Purity was defined as the area percentage of the main peak in relation to the total area of all integrated peaks in each chromatogram. Purity loss after 14 days at 37° C. was determined as the difference in purity between the samples incubated at 5° C. and 37° C., divided by the purity of the sample after incubation for 14 days at 5° C.
RP-UPLC analysis was performed using a Waters BEH130 2.1 mm×150 mm, 1.7 μm column operated at 50° C. and a flow rate of 0.4 mL/min using a mobile phase system consisting of A: 0.05% TFA in MQ-water B: 0.05% TFA in Acetonitrile. UV-detection was performed at 215 nm. The typical gradient profile used for most of the samples is shown below.
For some individual derivatives or analogues eluting at substantially different retention times compared with the majority of derivatives or analogues, some adjustments to the gradient profile were made to better enable purity assessment comparison across samples. The data confirmed the improved chemical stability of the glucagon derivatives of this invention.

Purity loss; 14 days at 37° C. [%]	SMILES
9	CC(C)C[C@H](NC(=O)[C@H](CC(C)C)NC(=O)[C@H](Cc1c[nH]c2ccccc12)NC(=O)[C@H](CCC(N)=O)NC(=O)[C@@H](NC(=O)[C@H](Cc1ccccc1)NC(=O)[C@H](CCC(=O)O)NC(=O)[C@H](CCC(N)=O)NC(=O)[C@H](C)NC(=O)[C@H](C)NC(=O)[C@H](CCCCN)NC(=O)[C@H](CO)NC(=O)[C@H](CC(=O)O)NC(=O)[C@H](CC(C)C)NC(=O)[C@H](Cc1ccc(O)cc1)NC(=O)[C@H](CCCCN)NC(=O)[C@H](CO)NC(=O)[C@H](CC(C)C)NC(=O)[C@H](CC(=O)O)NC(=O)[C@H](CO)NC(=O)[C@@H](NC(=O)[C@H](Cc1ccccc1)NC(=O)[C@@H](NC(=O)CNC(=O)[C@H](CCC(N)=O)NC(=O)C(C)(C)NC(=O)[C@@H](N)Cc1c[nH]cn1)[C@@H](C)O)[C@@H](C)O)C(C)C)C(=O)N[C@@H](CC(N)=O)C(=O)N[C@@H](CCCCNC(=O)CC[C@H](NC(=O)CC[C@H](NC(=O)COCCOCCNC(=O)COCCOCCNC(=O)CC[C@H](NC(=O)CCCCCCCCCCCCCCCCC(=O)O)C(=O)O)C(=O)O)C(=O)O)C(N)=O [Example 8, N^ε29-[(4S)-4-carboxy-4-[[(4S)-4-carboxy-4-[[2-[2-[2-[[2-[2-[2-[[(4S)-4-carboxy-4-(17-carboxyheptadecanoylamino)butanoyl]amino]ethoxy]ethoxy]acetyl]amino]ethoxy]ethoxy]acetyl]amino]butanoyl]amino]butanoyl]-[Aib2,Leu10,Lys17,Ala18,Glu21,Leu27,Lys29]-Glucagon amide] (H-H[Aib]QGTFTSDLSKYLDSKAAQEFVQWLLNK([γGlu-γGlu-AEEA-AEEA-γGlu-C18 diacid])-NH2; N-terminus assumed)
1	CC(C)C[C@H](NC(=O)[C@H](Cc1ccc(O)cc1)NC(=O)[C@H](CCCCN)NC(=O)[C@H](CO)NC(=O)[C@H](CC(C)C)NC(=O)[C@H](CC(=O)O)NC(=O)[C@H](CO)NC(=O)[C@@H](NC(=O)[C@H](Cc1ccccc1)NC(=O)[C@@H](NC(=O)CNC(=O)[C@H](CCC(N)=O)NC(=O)C1(NC(=O)[C@@H](N)Cc2c[nH]cn2)CCC1)[C@@H](C)O)[C@@H](C)O)C(=O)N[C@@H](CCC(=O)O)C(=O)N[C@@H](CO)C(=O)N[C@@H](CCCNC(=N)N)C(=O)N[C@@H](CCCNC(=N)N)C(=O)N[C@@H](C)C(=O)N[C@@H](CCC(N)=O)C(=O)N[C@@H](CC(=O)O)C(=O)N[C@@H](Cc1ccccc1)C(=O)N[C@H](C(=O)N[C@@H](CCC(N)=O)C(=O)N[C@@H](Cc1c[nH]c2ccccc12)C(=O)N[C@@H](CC(C)C)C(=O)N[C@@H](CC(C)C)C(=O)N[C@@H](CCCCNC(=O)COCCOCCNC(=O)COCCOCCNC(=O)CC[C@H](NC(=O)CC[C@H](NC(=O)CC[C@H](NC(=O)CCCCCCCCCCCCCCCCC(=O)O)C(=O)O)C(=O)O)C(=O)O)C(=O)N[C@H](C(N)=O)[C@@H](C)O)C(C)C [Example 63, N^ε28-[2-[2-[2-[[2-[2-[2-[[(4S)-4-carboxy-4-[[(4S)-4-carboxy-4-[[(4S)-4-carboxy-4-(17-carboxyheptadecanoylamino)butanoyl]amino]butanoyl]amino]butanoyl]amino]ethoxy]ethoxy]acetyl]amino]ethoxy]ethoxy]acetyl]-[Acb2,Leu10,Glu15,Leu27,Lys28]-Glucagon amide] (H-H[Ac4c]QGTFTSDLSKYLESRRAQDFVQWLLK([AEEA-AEEA-γGlu-γGlu-γGlu-C18 diacid])T-NH2; N-terminus assumed)
